According to ChEMBL document CHEMBL1811789, “Synthesis and biological evaluation of (±)-benzhydrol derivatives as potent non-nucleoside HIV-1 reverse transcriptase inhibitors” (Bioorg Med Chem, 2011):

Columns and labels:
[1] = Cytotoxicity against human C8166 cells by MTT assay; type: cell-based
[2] = system: Human immunodeficiency virus 1; test: Antiviral activity against wild type HIV1 3B infected in human C8166 cells assessed as inhibition of viral-induced cytopathogenicity after 3 days by syncytium formation assay; type: functional, organism-based; settings: Human immunodeficiency virus 1, 3B, C8166, 72 h
[3] = Selectivity index, ratio of CC50 for human C8166 cells to EC50 for wild type HIV1 3B; type: toxicity, cell-based; settings: read-out: Ratio CC50/EC50
[4] = system: Human immunodeficiency virus 1; test: Antiviral activity against […] HIV1 A17 harboring reverse transcriptase K103N and Y181C mutant infected in human C8166 cells assessed as inhibition of viral-induced cytopathogenicity after 3 days by syncytium formation assay; type: functional, organism-based; settings: Human immunodeficiency virus 1, A17, C8166, 72 h

Row | Compound | CC50 [1] [µM] | EC50 [2] [µM] | selectivity ratio [3] | EC50 [4] [µM]
1 | Cc1cc(S(N)(=O)=O)ccc1NC(=O)COc1ccc(Cl)cc1C(O)c1cc(Cl)ccc1Cl (racemic) | 36.2 | 1.06 | 34.2 | 9.58
2 | Cc1cc(S(N)(=O)=O)ccc1NC(=O)COc1ccc(Cl)cc1C(=O)c1cc(Cl)cc(C#N)c1 | > 387 | 0.00069 | > 563000 | 0.0014
3 | Cc1cc(S(N)(=O)=O)ccc1NC(=O)COc1ccc(Cl)cc1C(O)c1cccc(Cl)c1 (racemic) | 33.2 | 0.72 | 46.4 | 13
4 | Cc1cc(S(N)(=O)=O)ccc1NC(=O)COc1ccc(Cl)cc1C(O)c1ccc2ccccc2c1 (racemic) | 15.7 | 1.09 | 14.3 | 10.7
5 | Cc1cc(S(N)(=O)=O)ccc1NC(=O)COc1ccc(Cl)cc1C(O)c1ccccc1 (racemic) | 33.4 | 1.12 | 29.9 | 16.5
6 | Cc1cc(S(N)(=O)=O)ccc1NC(=O)COc1ccc(Cl)cc1C(O)c1ccc(Cl)c(Cl)c1 (racemic) | 24 | 2.15 | 11.2 | 31.6
7 | Cc1ccc(C(O)c2cc(Cl)ccc2OCC(=O)Nc2ccc(S(N)(=O)=O)cc2C)cc1 (racemic) | 38.7 | 0.65 | 59.3 | 13.4
8 | Cc1cc(S(N)(=O)=O)ccc1NC(=O)COc1ccc(Cl)cc1C(O)c1cccc2ccccc12 (racemic) | 31.1 | 0.39 | 80.1 | 8.47
9 | Cc1cc(S(N)(=O)=O)ccc1NC(=O)COc1ccc(Cl)cc1C(O)c1cc(Cl)cc(Cl)c1 (racemic) | 13.1 | 1.06 | 12.4 | 9.45
10 | Cc1cccc(C(O)c2cc(Cl)ccc2OCC(=O)Nc2ccc(S(N)(=O)=O)cc2C)c1 (racemic) | 33.1 | 0.48 | 69 | 9.7
11 | Cc1cc(S(N)(=O)=O)ccc1NC(=O)COc1ccc(Cl)cc1C(O)c1ccccc1Cl (racemic) | 32 | 1.3 | 24.6 | 20.4
12 | Cc1cc(S(N)(=O)=O)ccc1NC(=O)COc1ccc(Cl)cc1C(O)c1ccc(Cl)cc1Cl (racemic) | 39.9 | 2.92 | 13.7 | 33.6
13 | Cc1cc(S(N)(=O)=O)ccc1NC(=O)COc1ccc(Cl)cc1C(O)c1cc(Cl)cc(Br)c1 (racemic) | 22.9 | 0.54 | 42.4 | 7.79
14 | Cc1cc(S(N)(=O)=O)ccc1NC(=O)COc1ccc(Cl)cc1C(O)c1cccc(C)c1C (racemic) | 218 | 9.02 | 24.1 | 216
15 | Cc1cn([C@H]2C[C@H](N=[N+]=[N-])[C@@H](CO)O2)c(=O)[nH]c1=O [ZIDOVUDINE] | – | – | 422000 | 0.023
16 | Cc1cc(S(N)(=O)=O)ccc1NC(=O)COc1ccc(Cl)cc1C(O)c1ccccc1C (racemic) | 33.9 | 1.21 | 28 | 20.8
17 | Cc1ccc(C(O)c2cc(Cl)ccc2OCC(=O)Nc2ccc(S(N)(=O)=O)cc2C)c(C)c1 (racemic) | 26.4 | 4.27 | 6.18 | 40.4
18 | Cc1cc(C)cc(C(O)c2cc(Cl)ccc2OCC(=O)Nc2ccc(S(N)(=O)=O)cc2C)c1 (racemic) | 29.4 | 0.18 | 166 | 2.08
19 | Cc1cc(S(N)(=O)=O)ccc1NC(=O)COc1ccc(Cl)cc1C(O)c1cccc(F)c1 (racemic) | 37.6 | 0.48 | 78.5 | 6.61
20 | Cc1cc(S(N)(=O)=O)ccc1NC(=O)COc1ccc(Cl)cc1C(O)c1cccc([N+](=O)[O-])c1 (racemic) | 36.9 | 0.12 | 313 | 4.34
21 | Cc1ccc(C)c(C(O)c2cc(Cl)ccc2OCC(=O)Nc2ccc(S(N)(=O)=O)cc2C)c1 (racemic) | 35.5 | 0.81 | 43.7 | 14.3
22 | Cc1cc(S(N)(=O)=O)ccc1NC(=O)COc1ccc(Cl)cc1C(O)c1cc(Cl)cc(C#N)c1 (racemic) | 31.6 | 0.39 | 80.8 | 6.84
